Laboratory results: ChEMBL document CHEMBL4130478, “Improved proteolytic stability and potent activity against Leishmania infantum trypanothione reductase of α/β-peptide foldamers conjugated to cell-penetrating peptides” (Eur J Med Chem, 2017)
Calls of active or inactive are those of the source. No cut-off for these calls is given here. Numbered stars: 1 amine (or outer) side, 2 acyl side, 3 side chain; on linkers, the order of the positions; unused ones are H or OH. Bridge positions count the residues as written; N and C are the ends. Square brackets hold non-standard residues; d marks the D form. Peptide text beside a SMILES is read from it. I, II: the chains in the order shown. X2 = NCCCC[C@H](N[*:2])C(=O)C1CCCCN([C@@H](CCC(=O)O)C(=O)[*:1])C(=O)C1; β3hI = CC[C@H](C)[C@H](N)CC(=O)O; β3hS = N[C@@H](CO)CC(=O)O; Nle = CCCC[C@H](N)C(=O)O

Experiments:
Leishmania infantum [1] = assay: Leishmanicidal activity against Leishmania infantum amastigotes after 24 hrs by propidium iodide staining based flow cytometry; type: functional
[2] = Selectivity index, ratio of LC50 for cytotoxicity against human THP1 cells to LC50 for leishmanicidal activity against Leishmania infantum MCAN/ES/89/IPZ229/1/89 promastigotes; type: toxicity, cell-based; details: THP-1 cells, read-out: RatioLC50
Leishmania infantum [3] = assay: Leishmanicidal activity against Leishmania infantum MCAN/ES/89/IPZ229/1/89 promastigotes after 24 hrs by propidium iodide staining based flow cytometry; type: functional; details: MCAN/ES/89/IPZ229/1/89, 24 h
[4] = Selectivity index, ratio of LC50 for cytotoxicity against human THP1 cells to LC50 for leishmanicidal activity against Leishmania infantum amastigotes; type: toxicity, cell-based; details: THP-1 cells, read-out: RatioLC50
[5] = Cytotoxicity against human THP1 cells after 24 hrs by propidium iodide staining based flow cytometry; type: cell-based; details: THP-1 cells, read-out: LC50
Leishmania infantum [6] = assay: Leishmanicidal activity against Leishmania infantum amastigotes at 25 uM after 24 hrs by propidium iodide staining based flow cytometry; type: functional, organism-based
Trypanothione reductase [7] = molecular target: T1, Trypanothione reductase (Leishmania infantum, UniProt A4HSF7); assay: Inhibition of oxidoreductase activity of recombinant Leishmania infantum trypanothione reductase pre-incubated for 10 mins before T[S]2 and NADPH addition
T1 sequence (A4HSF7 whole entry): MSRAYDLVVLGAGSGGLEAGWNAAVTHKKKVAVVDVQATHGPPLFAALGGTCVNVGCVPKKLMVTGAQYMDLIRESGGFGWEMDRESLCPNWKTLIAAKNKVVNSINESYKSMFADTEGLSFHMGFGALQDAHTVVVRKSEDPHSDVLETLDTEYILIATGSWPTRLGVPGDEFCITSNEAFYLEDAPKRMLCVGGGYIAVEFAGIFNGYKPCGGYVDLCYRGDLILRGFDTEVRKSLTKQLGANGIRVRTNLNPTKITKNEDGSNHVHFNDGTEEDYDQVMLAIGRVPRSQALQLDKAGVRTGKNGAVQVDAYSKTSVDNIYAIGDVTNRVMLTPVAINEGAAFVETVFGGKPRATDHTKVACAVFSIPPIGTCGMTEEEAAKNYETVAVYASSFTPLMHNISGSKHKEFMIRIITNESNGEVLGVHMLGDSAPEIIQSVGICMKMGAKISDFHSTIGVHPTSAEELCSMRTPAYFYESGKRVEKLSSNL

Trypanothione reductase [8] = molecular target: T1, Trypanothione reductase; assay: Inhibition of dimerization of HIS/FLAG tagged Leishmania infantum trypanothione reductase incubated for 16 hrs in presence of dimerization buffer by ELISA
Leishmania infantum [9] = assay: Leishmanicidal activity against Leishmania infantum MCAN/ES/89/IPZ229/1/89 promastigotes at 25 uM after 24 hrs by propidium iodide staining based flow cytometry; type: functional, organism-based
Proteinase K = Proteinase K (Engyodontium album, UniProt P06873); assay: Stability assessed as Tritirachium album proteinase K-mediated compound degradation by measuring half life at 50 uM by HPLC method; type: ADME; details: parengyodontium album
Sequence of Proteinase K (P06873 whole entry): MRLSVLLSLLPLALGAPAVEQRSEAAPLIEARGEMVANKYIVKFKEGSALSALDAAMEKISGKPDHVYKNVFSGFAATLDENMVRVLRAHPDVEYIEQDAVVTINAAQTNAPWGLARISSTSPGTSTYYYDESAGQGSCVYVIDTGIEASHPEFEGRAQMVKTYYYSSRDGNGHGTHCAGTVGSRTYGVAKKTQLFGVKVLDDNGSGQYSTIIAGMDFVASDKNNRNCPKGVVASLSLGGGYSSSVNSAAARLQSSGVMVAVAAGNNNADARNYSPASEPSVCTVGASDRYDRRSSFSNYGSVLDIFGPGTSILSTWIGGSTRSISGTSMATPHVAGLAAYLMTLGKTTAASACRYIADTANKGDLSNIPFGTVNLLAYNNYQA

Compound	LC50 (Leishmania infantum [1])	selectivity ratio [2]	LC50 (Leishmania infantum [3])	selectivity ratio [4]	CC50 at 24 h [5]	Activity (Leishmania infantum [6])	IC50 (Trypanothione reductase [7])	IC50 (Trypanothione reductase [8])	Activity (Leishmania infantum [9])	half-life at 50 µM (Proteinase K)
CCCCCCCCCCCCCCCCCCOC[C@H](COP(=O)([O-])OCC[N+](C)(C)C)OC [(R)-EDELFOSINE]	0.6 µM	< 1	9 µM	1.7	1 µM					
CCCC[C@H](NC(=O)[C@H](CCCCN)NC(=O)[C@H](CC(C)C)NC(=O)C[C@H](CO)NC(=O)[C@@H](NC(=O)CNC(=O)[C@@H](NC(=O)C[C@H](CO)NC(=O)[C@H](CCC(N)=O)NC(=O)[C@@H](NC(=O)C[C@@H](NC(=O)[C@H](CCCCN)NC(=O)[C@@H]1CCCN1C(=O)[C@H](CCCNC(=N)N)NC(=O)[C@H](CCCNC(=N)N)NC(=O)[C@H](CCCNC(=N)N)NC(=O)[C@H](CCCNC(=N)N)NC(=O)[C@H](CCCNC(=N)N)NC(=O)[C@H](CCCNC(=N)N)NC(=O)[C@H](CCCNC(=N)N)NC(=O)[C@H](CCCNC(=N)N)NC(=O)[C@@H](N)CCCNC(=N)N)[C@@H](C)CC)[C@@H](C)CC)C(C)C)[C@@H](C)CC)C(N)=O (H-RRRRRRRRRPK[β3hI]IQ[β3hS]VGI[β3hS]LK[Nle]-NH2)	1.9 µM	5.9	0.98 µM	3.1	5.8 µM					
N=C(N)NCCC[C@H](NC(=O)[C@H](CCCNC(=N)N)NC(=O)[C@H](CCCNC(=N)N)NC(=O)[C@H](CCCNC(=N)N)NC(=O)[C@H](CCCNC(=N)N)NC(=O)[C@H](CCCNC(=N)N)NC(=O)[C@H](CCCNC(=N)N)NC(=O)[C@H](CCCNC(=N)N)NC(=O)[C@@H](N)CCCNC(=N)N)C(N)=O	> 25 µM		> 25 µM		> 25 µM					
CCCC[C@H](NC(=O)[C@H](CCCCN)NC(=O)[C@H](CCCC)NC(=O)[C@H](CO)NC(=O)[C@@H](NC(=O)CNC(=O)[C@H](CCCCN)NC(=O)[C@H](CO)NC(=O)[C@H](CCC(N)=O)NC(=O)[C@@H](NC(=O)[C@H](CCC(=O)O)N1CCCCC(C(=O)[C@H](CCCCN)NC(=O)[C@@H]2CCCN2C(=O)[C@H](CCCNC(=N)N)NC(=O)[C@H](CCCNC(=N)N)NC(=O)[C@H](CCCNC(=N)N)NC(=O)[C@H](CCCNC(=N)N)NC(=O)[C@H](CCCNC(=N)N)NC(=O)[C@H](CCCNC(=N)N)NC(=O)[C@H](CCCNC(=N)N)NC(=O)[C@H](CCCNC(=N)N)NC(=O)[C@@H](N)CCCNC(=N)N)CC1=O)[C@@H](C)CC)[C@@H](C)CC)C(=O)O (stereo partly specified) (I: IQSKGIS[Nle]K[Nle]-OH / II: H-RRRRRRRRRP; linker I:N-II:C via X2)	2.8 µM	< 1	3.5 µM	< 1	2.5 µM					
CCCCCCCCCCCCCCCCOP(=O)([O-])OCC[N+](C)(C)C [MILTEFOSINE]	2 µM	< 1		9.5						
CC[C@H](C)[C@H](NC(=O)CNC(=O)[C@@H](NC(=O)[C@H](CO)NC(=O)[C@H](CCC(N)=O)NC(=O)[C@@H](NC(=O)[C@@H](NC(=O)[C@H](CCCCN)NC(=O)[C@@H]1CCCN1C(=O)[C@H](CCCNC(=N)N)NC(=O)[C@H](CCCNC(=N)N)NC(=O)[C@H](CCCNC(=N)N)NC(=O)[C@H](CCCNC(=N)N)NC(=O)[C@H](CCCNC(=N)N)NC(=O)[C@H](CCCNC(=N)N)NC(=O)[C@H](CCCNC(=N)N)NC(=O)[C@H](CCCNC(=N)N)NC(=O)[C@@H](N)CCCNC(=N)N)[C@@H](C)CC)[C@@H](C)CC)C(C)C)C(=O)N[C@@H](CO)C(=O)N[C@@H](CC(C)C)C(=O)N[C@@H](CCCCN)C(=O)N[C@@H](CC(C)C)C(=O)O (H-RRRRRRRRRPKIIQSVGISLKL-OH)	3.5 µM	< 1	4.6 µM	< 1	1.7 µM					
CCCC[C@@H](CC(N)=O)NC(=O)[C@H](CCCCN)NC(=O)[C@H](CCCC)NC(=O)C[C@H](CO)NC(=O)[C@@H](NC(=O)CNC(=O)[C@@H](NC(=O)C[C@H](CO)NC(=O)[C@H](CCC(N)=O)NC(=O)[C@@H](NC(=O)C[C@H](NC(=O)[C@H](CCCCN)NC(=O)C[C@@H]1CCCN1C(C)=O)[C@@H](C)CC)[C@@H](C)CC)C(C)C)[C@@H](C)CC						inactive	3.47 µM	21.7 µM	inactive	8.62 h
